# According to PMC6484129, “Structure–function analyses reveal that a glucuronoyl esterase from Teredinibacter turnerae interacts with carbohydrates and aromatic compounds” (The Journal of Biological Chemistry, 2019):
# Like-named read-outs stand apart in the source and are kept apart here.
# How the values were obtained:
# Assay in all cases: inhibition of BnzGlcA hydrolysis, coupled K-URONIC assay
# Assay type in all cases: biochemical
# TtCE15A [1] = biological target: T1, TtCE15A (Teredinibacter turnerae, UniProt C5BN23)
# T1 construct: gene TERTU_0517
# T1 sequence (C5BN23 entry or part of it): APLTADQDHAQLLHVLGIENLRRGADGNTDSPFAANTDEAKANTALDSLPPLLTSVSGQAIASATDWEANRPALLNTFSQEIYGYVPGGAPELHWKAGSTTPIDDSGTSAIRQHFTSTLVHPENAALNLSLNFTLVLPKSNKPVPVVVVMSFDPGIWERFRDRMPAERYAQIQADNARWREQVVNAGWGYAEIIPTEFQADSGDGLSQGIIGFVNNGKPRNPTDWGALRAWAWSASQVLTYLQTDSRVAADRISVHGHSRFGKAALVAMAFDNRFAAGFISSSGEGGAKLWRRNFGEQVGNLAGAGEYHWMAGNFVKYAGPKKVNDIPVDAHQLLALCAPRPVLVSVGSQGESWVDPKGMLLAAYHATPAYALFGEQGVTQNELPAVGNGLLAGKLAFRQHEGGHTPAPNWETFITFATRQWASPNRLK
# From the text: (§1) inhibition of BnzGlcA hydrolysis, coupled K-URONIC assay on TtCE15A
# TtCE15A [2] = biological target: T2, TtCE15A (Teredinibacter turnerae, UniProt C5BN23, F174A)
# T2 construct: gene TERTU_0517
# T2 sequence (C5BN23 entry or part of it F174A): as the sequence (C5BN23 entry or part of it) above, with F152A counted along it
# From the text: as §1
# TtCE15A [3] = biological target: T3, TtCE15A (Teredinibacter turnerae, UniProt C5BN23, F174D)
# T3 construct: gene TERTU_0517
# T3 sequence (C5BN23 entry or part of it F174D): as the sequence (C5BN23 entry or part of it) above, with F152D counted along it
# From the text: as §1
smiles,measurement,setting,value
"COc1cc(/C=C/C(=O)O)ccc1O [FA, ferulic acid]",IC50,TtCE15A [1]; read-out: FA,550 ± 45 µM
same,IC50,TtCE15A [2]; read-out: FA,84 ± 5 µM
same,IC50,TtCE15A [3]; read-out: FA,400 ± 40 µM
"O=C(O)/C=C/c1ccc(O)cc1 [pCoA, p-coumaric acid]",IC50,TtCE15A [1]; read-out: pCoA,830 ± 40 µM
same,IC50,TtCE15A [2]; read-out: pCoA,4840 ± 470 µM
"COc1cc(/C=C/C(=O)O)cc(OC)c1O [SA, sinapic acid]",IC50,TtCE15A [1]; read-out: SA,560 ± 30 µM
same,IC50,TtCE15A [2]; read-out: SA,190 ± 22 µM
same,IC50,TtCE15A [3]; read-out: SA,770 ± 64 µM
"CO[C@@H]1C(C(=O)O)O[C@H](O[C@H]2[C@H](O[C@@H]3CO[C@@H](O[C@H](CO)[C@H](O)[C@@H](O)CO)[C@H](O)[C@H]3O)OC[C@@H](O[C@@H]3OC[C@@H](O)[C@H](O)[C@H]3O)[C@@H]2O)[C@H](O)[C@H]1O (stereo partly drawn) [XUXXR, 2^3-(4-O-methyl-D-glucuronyl)-α-D-xylotetraitol]",IC50,"TtCE15A [1]; 0.4 mM BnzGlcA, pH 7.5, <10% DMSO, read-out: XUXXR",5510 ± 280 µM
